The structures appear in SMILES notation. Counter-ions that a name gives are not always drawn. A value given as a limit tells only on which side of the number the result lay.

In the case of `N[C@H](Cc1c[nH]c2ccccc12)c1nc(-c2ccccc2)c(-c2ccccc2)[nH]1` (as salt: hydrochloride), the melting point is greater than 260 °C.
`CNCc1nc(-c2ccccc2)c(-c2ccccc2)[nH]1` (as salt: hydrochloride) [Example 162, (4,5-diphenyl-1H-imidazol-2-yl)-N-methylmethanamine] showed a melting point of 198 to 200 °C.
For `CN(C)Cc1nc(-c2ccccc2)cn1Cc1ccccc1` [Example 45, (1-benzyl-4-phenyl-1H-imidazol-2-yl)-N,N-dimethylmethanamine], the melting point was 78 to 80 °C.
As for `COc1ccc(-c2c[nH]c(CCNC(=O)OCCC(C)(C)C)n2)cc1` [Example 388, 3,3-dimethylbutyl 2-[4-(4-methoxyphenyl)-1H-imidazol-2-yl]ethylcarbamate], the melting point amounted to 116.8 °C.
With `CCCCCCC(NCc1ccccc1)c1nc(-c2cccc(OC)c2)c[nH]1` (racemic) [Example 216, (R,S)-N-benzyl-1-[4-(3-methoxyphenyl)-1H-imidazol-2-yl]-1-heptanamine], the melting point fell in the range of 141 to 142 °C.
Under `CCCCCCC(NCc1ccc(OC)cc1)c1nc(-c2ccccc2)c[nH]1` (racemic) [Example 227, (R,S)-N-(4-methoxybenzyl)-1-(4-phenyl-1H-imidazol-2-yl)-1-heptanamine] stands 126 to 128 °C; under `NCCCc1nc(-c2ccc(-c3ccccc3)cc2)c[nH]1` (as salt: hydrochloride) [Example 179, 3-(4-[1,1′-biphenyl]-4-yl-1H-imidazol-2-yl)-1-propanamine], greater than 260 °C; under `CCCCC(NCc1ccccc1)c1nc(-c2ccc(-c3ccccc3)cc2)c[nH]1` (racemic) [Example 60, (R,S)—N-benzyl-1-(4-[1,1′-biphenyl]4-yl-1H-imidazol-2-yl)-1-pentanamine], 201 to 203 °C.
As for `CC(C)Cc1ccc(-c2c[nH]c(CCNC(=O)OCc3ccccc3)n2)cc1` [Example 446, benzyl 2-[4-(4-isobutylphenyl)-1H-imidazol-2-yl]ethylcarbamate], the figure is 125.2 °C; as for `NCc1nc(-c2ccc(-c3ccccc3)cc2)cn1Cc1ccccc1` (as salt: hydrochloride) [Example 143, (1-benzyl-4-[1,1′-biphenyl]-4-yl-1H-imidazol-2-yl)methanamine], 170 to 174 °C; as for `CCCCCCC(N)c1nc(-c2ccc(C#N)cc2)c[nH]1` (racemic) (as salt: hydrochloride) [Example 205, (R,S)-4-[2-(1-aminoheptyl)-1H-imidazol-4-yl]benzonitrile], 218 to 220 °C.
As to `c1ccc(CNCCCc2nc(-c3ccc(-c4ccccc4)cc3)c[nH]2)cc1` [Example 178, N-benzyl-3-(4-[1,1′-biphenyl]-4-yl-1H-imidazol-2-yl)-1-propanamine], the melting point lay within 254 to 256 °C.
For the compound `CCCCCCC(NCc1ccccc1)c1nc(-c2ccc(N(CC)CC)cc2)c[nH]1` (racemic) (as salt: hydrochloride) [Example 230, (R,S)-N-benzyl-N-(1-{4-[4-(diethylamino)phenyl]-1H-imidazol-2-yl}heptyl)amine], the melting point amounted to 170 °C.
Compound `CCCCC(N)c1nc(-c2ccc(-c3ccccc3)cc2)c[nH]1` (racemic) (as salt: hydrochloride) [Example 175, (R,S)-1-(4-[1,1′-biphenyl]-4-yl-1H-imidazol-2-yl)-1-pentanamine] yielded a melting point of 197 to 200 °C.
Under `CC(C)(C)CC(=O)NCCc1nc(-c2ccc(-c3ccccc3)cc2)c[nH]1` [Example 61, N-[2-(4-[1,1′-biphenyl]-4-yl-1H-imidazol-2-yl)ethyl]-3,3-dimethyl-butanamide] stands 186 to 188 °C.
Under `CCCCCCC(NC1CCCCC1)c1nc(-c2ccccc2)c[nH]1` (racemic) [Example 76, (R,S)-N-[1-(4-phenyl-1H-imidazol-2-yl)heptyl]cyclohexanamine] stands 68 to 70 °C.
Under `c1ccc(CNCc2nc(-c3ccccc3)cn2Cc2ccccc2)cc1` [Example 110, N-benzyl(1-benzyl-4-phenyl-1H-imidazol-2-yl)methanamine] stands 60 to 62 °C; under `Brc1cccc(-c2c[nH]c([C@@H](NCC3CCCCC3)C3CCCCC3)n2)c1` [Example 289, (S)-1-[4-(3-bromophenyl)-1H-imidazol-2-yl]-1-cyclohexyl-N-(cyclohexylmethyl)methanamine], 134.3 °C; under `Fc1ccc(-c2c[nH]c([C@@H](NC3CCCCC3)C3CCCCC3)n2)cc1F` [Example 287, N-{(S)-cyclohexyl[4-(3,4-difluorophenyl)-1H-imidazol-2-yl]methyl}cyclohexanamine], 182.3 °C.
Consider `CN(CC#N)Cc1nc(-c2cc(C(C)(C)C)c(O)c(C(C)(C)C)c2)cs1` [Example 3, 2-[({4-[3,5-di(tert-butyl)-4-hydroxyphenyl]-1,3-thiazol-2-yl}methyl)(methyl)amino]acetonitrile], for which the melting point was 150 to 156 °C.
Under `CC(C)(C)OC(=O)NCCCc1nc(-c2ccc(-c3ccccc3)cc2)c[nH]1` [Example 171, 4-(2-{3-[(tert-butoxycarbonyl)amino]propyl}-1H-imidazol-4-yl)-1,1′-biphenyl] stands 145 to 146 °C; under `CCCCCCC(N)c1nc(-c2ccc(OC)cc2)c[nH]1` (racemic) (as salt: hydrochloride) [Example 190, (R,S)-1-[4-(4-methoxyphenyl)-1H-imidazol-2-yl]heptylamine], 231 to 232 °C; under `CC(C)(C)OC(=O)NCc1nc(-c2ccccc2)c(-c2ccccc2)[nH]1` [Example 157, tert-butyl (4,5-diphenyl-1H-imidazol-2-yl)methylcarbamate], 144 to 146 °C.
In turn, `CCCCOC(=O)NCCc1nc(-c2ccc(-c3ccc(Cl)c(Cl)c3)cc2)c[nH]1` [Example 448, butyl 2-[4-(3′,4′-dichloro-1,1′-biphenyl-4-yl)-1H-imidazol-2-yl]ethylcarbamate] gave a melting point of 137.5 °C.
As for `CCN(CC)c1ccc(-c2c[nH]c([C@@H](NC3CCCCC3)C3CCCCC3)n2)cc1` (as salt: hydrochloride) [Example 292, 4-{2-[(S)-cyclohexyl(cyclohexylamino)methyl]-1H-imidazol-4-yl}-N,N-diethylaniline], the figure is 204 to 210 °C.
`CCCCOC(=O)NCCc1nc(-c2ccc(N3CCCC3)cc2)c[nH]1` (as salt: hydrochloride) [Example 317, butyl 2-[4-(4-pyrrolidin-1-ylphenyl)-1H-imidazol-2-yl]ethylcarbamate]: the melting point was in the range of 165 to 166 °C.
The compound `NCc1nc(-c2ccccc2)c(-c2ccccc2)[nH]1` (as salt: hydrochloride) [Example 160, (4,5-diphenyl-1H-imidazol-2-yl)methanamine] registered a melting point of 210 to 212 °C.
As for `Fc1ccc(-c2c[nH]c([C@@H](CC3CCCCC3)NC3CCCCC3)n2)cc1` [Example 309, N-{(1R)-2-cyclohexyl-1-[4-(4-fluorophenyl)-1H-imidazol-2-yl]ethyl}cyclohexanamine], the figure is 217 to 218 °C; as for `O=C(NCCc1nc(-c2ccc(N3CCCC3)cc2)c[nH]1)OCc1ccccc1` [Example 390, benzyl 2-[4-(4-pyrrolidin-1-ylphenyl)-1H-imidazol-2-yl]ethylcarbamate], 122.4 °C.
As for `CCCCCCC(N)c1nc(-c2cccc(Br)c2)c[nH]1` (racemic) (as salt: hydrochloride) [Example 191, (R,S)-1-[4-(3-bromophenyl)-1H-imidazol-2-yl]-1-heptanamine], the melting point is 230 to 231 °C.
Under `CC(C)CCOC(=O)NCCc1nc(-c2ccc(-c3ccccc3)cc2)c[nH]1` [Example 380, isopentyl 2-[4-(1,1′-biphenyl-4-yl)-1H-imidazol-2-yl]ethylcarbamate] stands 128 to 130 °C; under `O=C(NCCc1nc(-c2ccc(-c3ccc(Br)cc3)cc2)c[nH]1)OCC1CCCCC1` [Example 303, cyclohexylmethyl 2-[4-(4′-bromo-1.1′-biphenyl-4-yl)-1H-imidazol-2-yl]ethylcarbamate], 130 to 132 °C; under `CCCCOC(=O)NCCc1nc(-c2ccc(-c3ccc(Br)cc3)cc2)c[nH]1` [Example 281, 4-bromo-4′-(2-{2-[(butoxycarbonyl)amino]ethyl}-1H-imidazol-4-yl)-1,1′-biphenyl], 166 °C.
Under `CCCCOC(=O)NCCc1nc(-c2ccc(-c3ccc(F)cc3)cc2)c[nH]1` [Example 392, butyl 2-[4-(4′-fluoro-1,1′-biphenyl-4-yl)-1H-imidazol-2-yl]ethylcarbamate] stands 149.3 °C.
In turn, `c1ccc(CN[C@H](Cc2c[nH]c3ccccc23)c2nc(-c3ccccc3)c[nH]2)cc1` [Example 88, (1R)-N-benzyl-2-(1H-indol-3-yl)-1-(4-phenyl-1H-imidazol-2-yl)ethanamine] had a melting point of 100 to 102 °C.
Under `CCCCCCC(NCc1ccccc1)c1nc(-c2ccc(C)cc2)c[nH]1` (racemic) (as salt: hydrochloride) [Example 200, (R,S)-N-benzyl-1-[4-(4-methylphenyl)-1H-imidazol-2-yl]-1-heptanamine] stands 185 to 188 °C; under `CC(C)CCCC(N)c1nc(-c2cccc(Br)c2)c[nH]1` (racemic) (as salt: hydrochloride) [Example 233, (R,S)-1-[4-(3-bromophenyl)-1H-imidazol-2-yl]-5-methyl-1-hexanamine], 200 to 202 °C.
Under `NC1(c2nc(-c3ccccc3)c[nH]2)CCCCC1` (as salt: hydrochloride) stands 202 to 204 °C.
As for `CC(C)(C)OC(=O)N[C@H](Cc1c[nH]c2ccccc12)c1nc(-c2ccccc2)c[nH]1` [Example 96, tert-butyl (1R)-2-(1H-indol-3-yl)-1-(4-phenyl-1H-imidazol-2-yl)-ethylcarbamate], the figure is 208 to 210 °C; as for `CCC[C@@H](NCc1ccccc1)c1nc(-c2ccc(-c3ccccc3)cc2)c[nH]1` [Example 213, (1R)-N-benzyl-1-(4-[1,1′-biphenyl]-4-yl-1H-imidazol-2-yl)-1-butanamine], 78.6 °C.

Source of the values: US7291641B2, “Derivatives of heterocycles with 5 members, their preparation and their use as medicaments” (Societe de Conseils de Recherches et d'Applications …, priority 1999, dated 2007).
